# Test results as given in patent US11571567B2, “Iontophoresis device for drug delivery and method for manufacturing the same” (BIOSENSOR LABORATORIES INC., priority 2016, dated 2023).
# Assay: Drug delivery effect of the RED iontophoresis device through excised hairless mouse back skin (HPLC/LC-MS of stratum corneum and dermis)
# Type: in vitro ADME
# Details: after 3 hours, FIG. 10
# Experimental: FIG. 10 is a graph illustrating drug delivery effects of the iontophoresis device according to an embodiment. In order to confirm the drug delivery effects, the RED battery unit was prepared in the same manner as in preparation of the RED battery unit prepared for the measurement in FIG. 6, except that the number of chamber layers was 15, and a size of the chamber was 1 cm×0.8 cm. Also, 3M clectrically conductible adhesive tape (ECAT), which is conductive fabric, was used as an intermediate unit. The first material containing unit was prepared as follows. 2.5 wt % of 2-phospho I-ascorbic acid trisodium (VCP) (available from Sigma Aldrich, US) and 3 w/v % of Carbopol 940 were dissolved in 1×PBS having pH of 7.4. By titrating with 1 M HCl and 1 M NaOH, a pH of the first material containing unit including vitamin C (VCP) was adjusted to 7. This is a stable pH at which VCP exists in the ionized form. As a thickening agent used in preparation of a dosage form, Carbopol was prepared as a sol while controlling a pH using pH indicator paper (available from GE healthcare, UK). The resultant was sufficiently stirred by using a glass rod so that a material in the first material containing unit was homogenous after each titration process. […]
compound,measurement,setting,value
"O=C1O[C@H]([C@@H](O)CO)C(O)=C1OP(=O)(O)O.[Na+].[Na+].[Na+] [VCP, 2-phospho I-ascorbic acid trisodium]",drug remaining amount in the stratum corneum,"control group (Ctrl): device with the same drug concentration, not activated by water, excised haireless mouse back skin",more drug remaining amount was found in the stratum corneum
same,"vitamin C (VCP) delivered to the skin, i.e., dermis","experimental group (RED single): activated iontophoresis device, 15 chamber layers, 2.5 wt % VCP in Carbopol sol pH 7, excised haireless mouse (Sk-hr 1) back skin",about 40%
